Experimental findings from PubChem BioAssay AID1259411 (Chemical Carcinogenesis Research Information System (CCRIS), 2018) are described below.

Each structure is given as a SMILES string. Calls of active or inactive are those of the source. No rule for the calls is given here.

In this series the test system is rodent carcinogenicity bioassays, tumor incidence. Kind of series: CCRIS carcinogenicity studies. In short, it runs like this: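 NCI-built, expert-reviewed records of carcinogenicity and related test outcomes (mutagenicity, tumor promotion/inhibition) compiled from published and report sources, historical span 1985-2011, not updated.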

For the compound `C=CCOCC1CO1` (stereo not drawn), the carcinogen call reads like this: (Species: MOUSE, Strain/Sex: B6C3F1/FEMALE, Route: INHALATION, Dose: 0, 5, 10 PPM 6 HR/D 5 D/WK FOR 102 WK (STUDY DURATION: 105 WK), Dose: 0, 5, 10 PPM 6 HR/D 5 D/WK FOR 102 WK (STUDY DURATION: 105 WK), Tumor Site: Type of Lesion: NOSE (RESPIRATORY EPITHELIUM): ADENOMA) “equivocal”; (Species: MOUSE, Strain/Sex: B6C3F1/MALE, Route: INHALATION, Dose: 0, 5, 10 PPM 6 HR/D 5 D/WK FOR 102 WK (STUDY DURATION: 105 WK), Dose: 0, 5, 10 PPM 6 HR/D 5 D/WK FOR 102 WK (STUDY DURATION: 105 WK), Tumor Site: Type of Lesion: NOSE (RESPIRATORY EPITHELIUM): ADENOMA) “active; positive”; (Species: RAT, Strain/Sex: OSBORNE-MENDEL/FEMALE, Route: INHALATION, Dose: 0, 5, 10 PPM 6 HR/D 5 D/WK FOR 103 WK (STUDY DURATION: 106 WK), Dose: 0, 5, 10 PPM 6 HR/D 5 D/WK FOR 103 WK (STUDY DURATION: 106 WK)) “inactive; negative”; (Species: RAT, Strain/Sex: OSBORNE-MENDEL/MALE, Route: INHALATION, Dose: 0, 5, 10 PPM 6 HR/D 5 D/WK FOR 103 WK (STUDY DURATION: 106 WK), Dose: 0, 5, 10 PPM 6 HR/D 5 D/WK FOR 103 WK (STUDY DURATION: 106 WK), Tumor Site: Type of Lesion: NOSE (RESPIRATORY OR OLFACTORY EPITHELIUM): PAPILLARY ADENOMA, SQUAMOUS CELL CARCINOMA, POORLY DIFFERENTIATED ADENOCARCI) “equivocal”.

Turning to `O=c1[nH]c(=O)n(O)c2nc[nH]c12`, the carcinogen call (Species: RAT, Strain/Sex: SPRAGUE-DAWLEY/FEMALE, Route: SUBCUTANEOUS, Dose: 3-7 MG/SUSPENDED IN CARBOXYMETHYLCELLULOSE IN SALINE 1/WK FOR 22-26 WK, Tumor Site: Type of Lesion: INJECTION SITE, LIVER: HYPERPLASTIC NODULE OR HEPATOMA) was “active; positive”; the carcinogen call (Species: RAT, Strain/Sex: SPRAGUE-DAWLEY/MALE, Route: SUBCUTANEOUS, Dose: 0, 0.1, 1.0 MG IN CARBOXYMETHYLCELLULOSE 3/WK FOR 8 WK, Dose: 0, 0.1, 1.0 MG IN CARBOXYMETHYLCELLULOSE 3/WK FOR 8 WK, Tumor Site: Type of Lesion: INJECTION SITE: SARCOMA, FIBROMA) is “active; positive”; the carcinogen call (Species: RAT, Strain/Sex: WISTAR/MALE, FEMALE, Route: SUBCUTANEOUS, Dose: 3-7 MG/SUSPENDED IN CARBOXYMETHYLCELLULOSE IN SALINE 1/WK FOR 22-26 WK, Tumor Site: Type of Lesion: INJECTION SITE, LIVER: HYPERPLASTIC NODULE OR HEPATOMA) was “active; positive”; the carcinogen call (Species: RAT, Strain/Sex: WISTAR/MALE, Route: ORAL, Dose: 7 MG IN CARBOXYMETHYLCELLULOSE IN SALINE 1/WK FOR 22 WK, Tumor Site: Type of Lesion: LIVER) is “active; positive”; the carcinogen call (Species: RAT, Strain/Sex: WISTAR/MALE, Route: SUBCUTANEOUS, Dose: 0, 0.1, 1.0 MG IN CARBOXYMETHYLCELLULOSE 3/WK FOR 8 WK, Dose: 0, 0.1, 1.0 MG IN CARBOXYMETHYLCELLULOSE 3/WK FOR 8 WK, Tumor Site: Type of Lesion: INJECTION SITE: SARCOMA, FIBROMA) was “active; positive”.

As to `CCC(C)[N+](=O)[O-]` (stereo not drawn), the carcinogen call (Species: RAT, Strain/Sex: F344/MALE, Route: GAVAGE, Dose: 0, 2 MMOL/KG BW 1/WK FOR 50 WK (STUDY DURATION: 83 WK), Tumor Site: Type of Lesion: LIVER: CARCINOMA) was “active; positive”.

On to `CCCCC(CC)CO` (stereo not drawn), for which the carcinogen call is, setting by setting: (Species: MOUSE, Strain/Sex: B6C3F1/FEMALE, Route: GAVAGE, Dose: 0, 50, 200, 750 MG/KG/D 5 D/WK FOR 18 MO (STUDY DURATION: 18 MO), Dose: 0, 50, 200, 750 MG/KG/D 5 D/WK FOR 18 MO (STUDY DURATION: 18 MO)) “inactive; negative”; (Species: MOUSE, Strain/Sex: B6C3F1/MALE, Route: GAVAGE, Dose: 0, 50, 200, 750 MG/KG/D 5 D/WK FOR 18 MO (STUDY DURATION: 18 MO), Dose: 0, 50, 200, 750 MG/KG/D 5 D/WK FOR 18 MO (STUDY DURATION: 18 MO)) “inactive; negative”; (Species: RAT, Strain/Sex: F344/FEMALE, Route: GAVAGE, Dose: 0, 50, 150, 500 MG/KG/D 5 D/WK FOR 24 MO (STUDY DURATION: 24 MO), Dose: 0, 50, 150, 500 MG/KG/D 5 D/WK FOR 24 MO (STUDY DURATION: 24 MO)) “inactive; negative”; (Species: RAT, Strain/Sex: F344/MALE, Route: GAVAGE, Dose: 0, 50, 150, 500 MG/KG/D 5 D/WK FOR 24 MO (STUDY DURATION: 24 MO), Dose: 0, 50, 150, 500 MG/KG/D 5 D/WK FOR 24 MO (STUDY DURATION: 24 MO)) “inactive; negative”.

Take `CC(C)(C)c1cc([N+](=O)[O-])cc([N+](=O)[O-])c1OS(C)(=O)=O`: the carcinogen call is “inactive; negative” (Species: RAT, Strain/Sex: SPRAGUE-DAWLEY/FEMALE, Route: ORAL, Dose: 0, 25, 100, 400 PPM IN DIET FOR 1 YR (STUDY DURATION: 1 YR), Dose: 0, 25, 100, 400 PPM IN DIET FOR 1 YR (STUDY DURATION: 1 YR)) and “inactive; negative” (Species: RAT, Strain/Sex: SPRAGUE-DAWLEY/MALE, Route: ORAL, Dose: 0, 25, 100, 400 PPM IN DIET FOR 1 YR (STUDY DURATION: 1 YR), Dose: 0, 25, 100, 400 PPM IN DIET FOR 1 YR (STUDY DURATION: 1 YR)).

In the case of `CC1=NN(c2ccccc2)C(=O)C1`, the carcinogen call by setting is: (Species: MOUSE, Strain/Sex: B6C3F1/FEMALE, Route: ORAL, Dose: 0, 7500, 15000 PPM IN DIET, Dose: 0, 7500, 15000 PPM IN DIET) “inactive; negative”; (Species: MOUSE, Strain/Sex: B6C3F1/MALE, Route: ORAL, Dose: 0, 7500, 15000 PPM IN DIET, Dose: 0, 7500, 15000 PPM IN DIET) “inactive; negative”; (Species: RAT, Strain/Sex: F344/FEMALE, Route: ORAL, Dose: 0, 2500, 5000 PPM IN DIET, Dose: 0, 2500, 5000 PPM IN DIET) “inactive; negative”; (Species: RAT, Strain/Sex: F344/MALE, Route: ORAL, Dose: 0, 2500, 5000 PPM IN DIET, Dose: 0, 2500, 5000 PPM IN DIET) “inactive; negative”.

As to `CCCCCCCCS(=O)C(C)Cc1ccc2c(c1)OCO2` (stereo not drawn), the carcinogen call runs as follows: (Species: MOUSE, Strain/Sex: B6C3F1/FEMALE, Route: ORAL, Dose: 0, 295, 754 PPM IN DIET, TWA, Dose: 0, 295, 754 PPM IN DIET, TWA) “inactive; negative”; (Species: MOUSE, Strain/Sex: B6C3F1/MALE, Route: ORAL, Dose: 0, 350, 700 PPM IN DIET, Dose: 0, 350, 700 PPM IN DIET, Tumor Site: Type of Lesion: LIVER: HEPATOCELLULAR CARCINOMA) “active; positive”; (Species: RAT, Strain/Sex: F344/FEMALE, Route: ORAL, Dose: 0, 3000, 6000 PPM IN DIET, Dose: 0, 3000, 6000 PPM IN DIET) “inactive; negative”; (Species: RAT, Strain/Sex: F344/MALE, Route: ORAL, Dose: 0, 1500, 3000 PPM IN DIET, Dose: 0, 1500, 3000 PPM IN DIET) “inactive; negative”.

As to `CC(=O)N(C)C`, the carcinogen call was “inactive; negative” (Species: MOUSE, Strain/Sex: CRL:CD-1 (ICR)BR/FEMALE, Route: INHALATION, Dose: 0, 25, 100, 350 PPM 6 HR/D 5 D/WK FOR 18 MO (STUDY DURATION: 18 MO), Dose: 0, 25, 100, 350 PPM 6 HR/D 5 D/WK FOR 18 MO (STUDY DURATION: 18 MO)); “inactive; negative” (Species: MOUSE, Strain/Sex: CRL:CD-1 (ICR)BR/MALE, Route: INHALATION, Dose: 0, 25, 100, 350 PPM 6 HR/D 5 D/WK FOR 18 MO (STUDY DURATION: 18 MO), Dose: 0, 25, 100, 350 PPM 6 HR/D 5 D/WK FOR 18 MO (STUDY DURATION: 18 MO)); “inactive; negative” (Species: RAT, Strain/Sex: CRL:CD BR/FEMALE, Route: INHALATION, Dose: 0, 25, 100, 350 PPM 6 HR/D 5 D/WK FOR 2 YR (STUDY DURATION: 2 YR), Dose: 0, 25, 100, 350 PPM 6 HR/D 5 D/WK FOR 2 YR (STUDY DURATION: 2 YR)); “inactive; negative” (Species: RAT, Strain/Sex: CRL:CD BR/MALE, Route: INHALATION, Dose: 0, 25, 100, 350 PPM 6 HR/D 5 D/WK FOR 2 YR (STUDY DURATION: 2 YR), Dose: 0, 25, 100, 350 PPM 6 HR/D 5 D/WK FOR 2 YR (STUDY DURATION: 2 YR)).
